SMILES strings stand for the structures.

In the assay the test system is Hepatitis B Virus. The assay is described as follows: HBV test system: HBV-DNA content in the supernatant of HBV-DNA-transfected hepatoma cells (HEP G2.2.15), after PEG precipitation, with a non-radioactive HBV genomic DNA probe. The settings on record: HepG2.2.15, 50%ige Hemmung der HBV-DNA Konzentration im Überstand, read-out: IC₅₀. In kind it is cell-based. The source says: Der Nachweis wurde in mit Hepatitis B Virus DNA transfizierten Hepatomzellen (HEP G2.2.15) geführt. Die Ergebnisse der unten aufgeführten Beispiele wurden zu dem in der folgenden Literaturangabe [Sells, M.A.; Chen, M.L., Acs, G., Proc. Natl. Acad. Sci. USA S. 1005 - 1009, Vol. 84 (1987] beschriebenen HBV-Testsystem ermittelt: Transfizierte Hepatomzellen (HEP G2.2.15) wurden mit verschiedenen Konzentrationen der jeweiligen Verbindung inkubiert. Durch Behandlung der transfizierten Hepatomzellinie HEP G2.2.15 mit den erfindungsgemäßen Verbindungen konnte die Reduktion der virusspezifischen HBV-DNA im Überstand sowie eine Reduktion des HBsAg Spiegels gezeigt werden. Es wurde weiter gefunden, daß die erfindungsgemäßen Verbindungen zu einer Reduktion der replikativen Intermediate der Hepatitisviren führen. Im Überstand der Zellkulturen wurde nach PEG Fällung der Gehalt an HBV-DNA bestimmt. Dies geschah unter Verwendung einer nicht radioaktiv markierten HBV genomischen DNA Probe [Pauly, P., 1982, Ph. D. Thesis, University of Göttingen, F.R.G.; Köchel et al., 1990, EMBL, Accession-Nr. X 51790]. Gleichzeitig erfolgte der Nachweis der Beeinflussung der HBsAg Bildung mittels eines kommerziell erhältlichen ELISA Tests. Die angegebenen IC₅₀-Werte beziehen sich auf die Substratkonzentrationen, die unter den oben aufgeführten Testbedingungen eine 50%ige Hemmung der HBV-DNA Konzentration im Überstand bewirken. Tabelle A
Gleichzeitig erfolgte die Bestimmung des möglicherweise vorhandenen cytotoxischen Einflusses der erfindungsgemäßen Verbindungen mittels Kristallviolettfärbung bzw. über den Einbau von radioaktiv markiertem Thymidin in die zelluläre DNA.

Take `CC1=COc2c(N3CCN(C4CC4)CC3)c(F)cc3c(=O)c(C(=O)O)cn1c23` [Beispiel 9, 10-(4-Cyclopropyl-piperazin-1-yl)-9-fluor-3-methyl-7-oxo-7H-pyrido-[1,2,3-de][1,4]benzoxazin-6-carbonsäure]: the IC50 came to 0.1 µM.
Regarding `CCOC(=O)C1=Cn2cc(C(=O)OCC)c(=O)c3cc(F)c(F)c(c32)O1` [Beispiel I, 9,10-Difluor-2-ethoxycarbonyl-7-oxo-7H-pyrido[1,2,3-de][1,4]benzoxazin-6-carbonsäureethylester], the IC50 was 0.5 µM.
As for `CCOC(=O)c1cn2c3c(c(F)c(F)cc3c1=O)OC(C(C)(C)CCCOc1ccccc1)=C2` [Beispiel VIII, 9,10-Difluor-2-(2-methyl-5-phenoxy-2-pentyl)-7-oxo-7H-pyrido[1,2,3-de][1,4]-benzoxazin-6-carbonsäureethylester], the IC50 came to 0.5 µM.

Values taken from patent publication EP0563734A1, “9-fluoro-7-oxo-7H-pyrido(1,2,3-de)(1,4)benzoxazine carboxylic acids and esters and their use as antiviral agents” (BAYER AG, priority 1992, dated 1993).
